Reference: patent publication US20070293467A1, “Demethyl-Cantharidin Platinum Complex Isomers and Their Use” (priority 2004, published 2007)
Read-outs that look alike come from different tables or passages of the source.

Tests used:
Type in all cases: cell-based
Huh-7 = assay: MTT tetrazolium microculture growth inhibition, Huh-7; conditions: for IC50: Huh-7, 72 h exposure, MTT, read-out: Average growth-inhibitory activity (IC50); for in vitro antitumor activity against Huh-7 cell: in words, from Table 5
Method: (§1) DMC platinum complexes, together with controls cisplatin, carboplatin, and oxaliplatin were screened for an in vitro antitumor activity against various tumorous cell lines, using a tetrazolium microculture assay.
(§2) Drugs: Drugs to be tested were dissolved in a complete medium at twice the highest concentration to be used, followed by filtration (0.22 μm) sterilization. A series of log dilutions were made from each drug solution using complete medium. All drug solutions were prepared 10 minutes before addition to cells.
(§3) In vitro drug exposure: For each drug to be tested, trypsinized cells were adjusted to a concentration of 2×10^5 cells/ml in a complete medium, and 0.1 ml of the cell suspension was added to each of 24 wells in a 96-well microculture plate. The plate was then incubated at a standard condition for 24 hours in order to allow the cells to be adhered to the bottom of the well and restart exponential growth. To each well of the control culture and drug/concentration combinations, 0.1 ml of the complete medium and drug solution were added, respectively. Each drug/concentration combination consisting of four replicates while the control culture consisting of 12 replicates. The twelve replicates of a blank control containing 0.2 ml of the complete medium were set aside to account for the background. The cultures were incubated for additional 72 hours. All tests were repeated at least 3 times on different occasions.
(§4) MTT assay: The MTT (tetrazolium) assay was used to determine the growth-inhibitory effects of different drugs. A 5 mg/ml solution of MTT (3-(4,5-dimethylthiazol-2-yl)-2,5-diphenyltetrazolium bromide) was prepared in phosphate buffer saline (pH 7.4), sterilized by filtration (0.22 μm) and stored at −20° C. To each well, 0.02 ml of an MTT solution was added, and the plate was incubated for 4 hours under standard conditions. The medium in each well was then removed, and 0.1 ml of DMSO (dimethylsulfoxide) was added to each well to solubilize the colored dye produced from the metabolic reduction of MTT. The amount of reduced MTT was measured by spectrophotometric means (570 nm).
(§5) Data analysis: A mean value of OD was determined for all of the 12 control wells. For each concentration of each drug, A mean OD of the 4 wells was determined. All the mean ODs were subtracted from the blank to account for the background. The “Percent of Control” values were determined and plotted.

HT-29 = assay: MTT tetrazolium microculture growth inhibition, HT-29; conditions: 72 h exposure, read-out: Average growth-inhibitory activity (IC50)
Method: as §1, §2, §3, §4, §5

[1] = test system: liver cancer cell line PLC/5; assay: MTT tetrazolium microculture growth inhibition, PLC/5; conditions: for IC50: PLC/5, 72 h exposure, MTT, read-out: Average growth-inhibitory activity (IC50); for activity against liver cancer cell line PLC/5: in words, from Table 5
Method: as §1, §2, §3, §4, §5

L1210 resistance = assay: MTT tetrazolium microculture growth inhibition, L1210 resistance; conditions: for resistance / cross-resistance of L1210: L1210 resistance vs L1210; for IC50: L1210 resistance, 72 h exposure, MTT, read-out: Average growth-inhibitory activity (IC50)
Method: as §1, §2, §3, §4, §5

Huh-7 resistance = assay: MTT tetrazolium microculture growth inhibition, Huh-7 resistance; conditions: for cross-resistance of Huh-7: Huh-7 resistance vs Huh-7, within experimental errors; for IC50: Huh-7 resistance, 72 h exposure, MTT, read-out: Average growth-inhibitory activity (IC50); for resistance of Huh-7 to the drug: Huh-7 resistance vs Huh-7, from IC50 of Table 5
Method: as §1, §2, §3, §4, §5

[2] = test system: colorectal cancer cell line Colo320; assay: MTT tetrazolium microculture growth inhibition, Colo320; conditions: for IC50: Colo320, 72 h exposure, MTT, read-out: Average growth-inhibitory activity (IC50); for activity against colorectal cancer cell line Colo320: in words, from Table 5
Method: as §1, §2, §3, §4, §5

HCT-116 = assay: MTT tetrazolium microculture growth inhibition, HCT-116; conditions: 72 h exposure, read-out: Average growth-inhibitory activity (IC50)
Method: as §1, §2, §3, §4, §5

SK-Hep = assay: MTT tetrazolium microculture growth inhibition, SK-Hep; conditions: for IC50: SK-Hep, 72 h exposure, MTT, read-out: Average growth-inhibitory activity (IC50); for in vitro antitumor activity against SK-Hep: in words, from Table 5
Method: as §1, §2, §3, §4, §5

L1210 = assay: MTT tetrazolium microculture growth inhibition, L1210; conditions: 72 h exposure, read-out: Average growth-inhibitory activity (IC50)
Method: as §1, §2, §3, §4, §5

SK-Hep resistance = assay: MTT tetrazolium microculture growth inhibition, SK-Hep resistance; conditions: for IC50: SK-Hep resistance, 72 h exposure, MTT, read-out: Average growth-inhibitory activity (IC50); for resistance of SK-Hep to the drug: SK-Hep resistance vs SK-Hep, from IC50 of Table 5
Method: as §1, §2, §3, §4, §5

Row | Structure (SMILES) | IC50 (Huh-7) [µM] | in vitro antitumor activity against Huh-7 cell (Huh-7) | IC50 (HT-29) [µM] | IC50 [1] [µM] | activity against liver cancer cell line PLC/5 [1] | resistance / cross-resistance of L1210 (L1210 resistance) | IC50 (L1210 resistance) [µM] | IC50 (Huh-7 resistance) [µM] | IC50 [2] [µM] | activity against colorectal cancer cell line Colo320 [2] | IC50 (HCT-116) [µM] | IC50 (SK-Hep) [µM] | in vitro antitumor activity against SK-Hep (SK-Hep) | IC50 (L1210) [µM] | IC50 (SK-Hep resistance) [µM] | also measured
1 | O=C1[O][Pt]2([NH][C@@H]3CCCC[C@H]3[NH]2)[O]C(=O)C2C3CCC(O3)C12 (mixture of isomers) [Trans-DMC platinum complex, Trans-Racemic DMC Platinum Complex] | 4.47 ± 0.79 | effective in vitro antitumor activities | 2.09 ± 0.69 | 4.64 ± 1.01 | effective activities | no cross-resistance | 0.17 ± 0.05 | 5.99 ± 0.52 | 2.54 ± 0.95 | more effective | 0.81 ± 0.29 | 4.27 ± 1.03 | effective in vitro antitumor activities | 0.14 ± 0.06 | 5.01 ± 0.68 | cross-resistance of Huh-7 (Huh-7 resistance): no cross-resistance
2 | N.N.O=C([O-])C1(C(=O)[O-])CCC1.[Pt+2] [Carboplatin, reference compound] | 117 ± 9.82 | – | 134 ± 15 | 80.2 ± 15.8 | – | high resistance | 126 ± 17.2 | 176 ± 54 | 41.7 ± 5.44 | – | 69.4 ± 14.7 | 134 ± 10.3 | – | 12.8 ± 2.14 | 358 ± 28 | resistance of Huh-7 to the drug (Huh-7 resistance): 1.5 fold; resistance of SK-Hep to the drug (SK-Hep resistance): about 2.7 fold
3 | O=C1[O][Pt]2([NH][C@H]3CCCC[C@H]3[NH]2)[O]C(=O)C2C3CCC(O3)C12 (stereo partly drawn) [Cis-DMC platinum complex] | 19 ± 1.46 | – | – | 17.1 ± 1.18 | – | – | – | 17.1 ± 0.77 | 5.98 ± 0.97 | – | 12.6 ± 1.67 | 19.4 ± 2.23 | – | – | 22.7 ± 1.11 | cross-resistance of Huh-7 (Huh-7 resistance): no cross-resistance
4 | N.N.[Cl][Pt][Cl] [Cisplatin, reference compound] | 11.7 ± 1.21 | – | 12.1 ± 2.25 | 6.92 ± 1.46 | – | high resistance | 14 ± 1.49 | 25.6 ± 3.5 | 2.54 ± 0.48 | – | 4.14 ± 0.8 | 13.5 ± 1.84 | – | 0.82 ± 0.14 | 51.8 ± 7.01 | resistance of Huh-7 to the drug (Huh-7 resistance): 1.5 fold; resistance of SK-Hep to the drug (SK-Hep resistance): 4 fold
5 | O=C1OC(=O)C2C3CCC(O3)C12 (stereo not shown) [DMC, Demethylcantharidin, reference compound] | – | – | – | – | – | – | – | – | – | – | – | – | – | – | – | IC50 (Huh-7; Homo sapiens): 32.9 ± 3.68 µM; IC50 (HT-29; Homo sapiens): 32.7 ± 2.57 µM; IC50 ([1]; PLC5): 25.3 ± 1.98 µM; IC50 (L1210 resistance; Mus musculus): 45.5 ± 3.69 µM; IC50 (Huh-7 resistance; Homo sapiens): 26.9 ± 3.03 µM; IC50 ([2]; Homo sapiens, COLO 320): 23.9 ± 1.42 µM; IC50 (HCT-116; Homo sapiens): 23.2 ± 2.06 µM; IC50 (SK-Hep; SKHep): 19 ± 2.01 µM; IC50 (L1210; Mus musculus): 31.2 ± 1.79 µM; IC50 (SK-Hep resistance; SKHep): 25.5 ± 1.69 µM
6 | O=C1[O][Pt]2([NH][C@@H]3CCCC[C@H]3[NH]2)[O]C1=O [Oxaliplatin, reference compound] | 8.97 ± 4.56 | – | – | 6.48 ± 3.19 | – | – | – | – | 1 ± 0.31 | – | – | 9.09 ± 4.24 | – | – | – | –
7 | O=C1[O][Pt]2([NH][C@@H]3CCCC[C@H]3[NH]2)[O]C(=O)C2C3CCC(O3)C12 (stereo partly drawn) [Trans-R,R(−)-DMC platinum complex, Trans-R,R-(−)-DMC platinum complex] | 3.65 ± 1.1 | effective in vitro antitumor activities | 0.92 ± 0.57 | 3.23 ± 1.13 | effective activities | no cross-resistance | 0.99 ± 0.1 | 26.9 ± 6.14 | 2.45 ± 0.83 | more effective | 0.45 ± 0.27 | 6.63 ± 2.21 | effective in vitro antitumor activities | 0.76 ± 0.09 | 4.7 ± 0.95 | –
8 | O=C1[O][Pt]2([NH][C@H]3CCCC[C@@H]3[NH]2)[O]C(=O)C2C3CCC(O3)C12 (stereo partly drawn) [Trans-S,S(+)-DMC platinum complex, Trans-S,S-(+)-DMC platinum complex] | 8.46 ± 1.51 | effective in vitro antitumor activities | 3.07 ± 0.73 | 6.26 ± 1.87 | effective activities | no cross-resistance | 0.12 ± 0.06 | 16.2 ± 2.6 | 4.96 ± 1.32 | more effective | 2.04 ± 0.41 | 6.15 ± 1 | effective in vitro antitumor activities | 0.11 ± 0.05 | 8.09 ± 0.89 | –
